Source: ChEMBL document CHEMBL1201862, “PubChem BioAssay data set” (2004)
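Following 48 hours of exposure in 96-well plates, responses at five concentrations were used to interpolate endpoints linearly. GI50: concentration for 50% inhibition of growth.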 Active and inactive are the calls of the source. Rule as the data show it: active = GI50 up to about 1.1 µM and inactive = higher.

Columns and labels:
Assay in all cases: growth of human tumour cells (NCI), 48 h
[1] = tested on: CCRF-CEM
[2] = tested on: SR
[3] = tested on: CAKI-1
[4] = tested on: HL-60
[5] = tested on: SN12C
[6] = tested on: 786-0
[7] = tested on: OVCAR-5
[8] = tested on: KM12
[9] = tested on: UACC-257
[10] = tested on: SK-OV-3
[11] = tested on: A498
[12] = tested on: MOLT-4
[13] = tested on: SK-MEL-28
[14] = tested on: UO-31
[15] = tested on: TK-10
[16] = tested on: NCI-H226
[17] = tested on: HOP-92
[18] = tested on: NCI/ADR-RES
[19] = tested on: SF-268

Row | SMILES | GI50 [1] | GI50 [2] | GI50 [3] | GI50 [4] | GI50 [5] | GI50 [6] | GI50 [7] | GI50 [8] | GI50 [9] | GI50 [10] | GI50 [11] | GI50 [12] | GI50 [13] | GI50 [14] | GI50 [15] | GI50 [16] | GI50 [17] | GI50 [18] | GI50 [19]
1 | CC(=O)Nc1ccc2c3c(cc(O)c2c1)N(C(=O)CCCCC(=O)N1CC(CCl)c2c1cc(O)c1cc(NC(C)=O)ccc21)CC3CCl (stereo unspecified) | < 0.01 µM (active) | < 0.01 µM (active) | 0.745 µM (active) | < 0.01 µM (active) | 0.154 µM (active) | 0.0528 µM (active) | 1.37 µM (inactive) | 0.505 µM (active) | 0.181 µM (active) | 0.34 µM (active) | 0.127 µM (active) | < 0.01 µM (active) | 0.27 µM (active) | 3.53 µM (inactive) | 2.19 µM (inactive) | 0.0333 µM (active) | 0.207 µM (active) | 21.3 µM (inactive) | < 0.0141 µM (active)
2 | CCn1c2ccccc2c2ccc(C3C4C(=O)N(c5cccc6ccccc56)C(=O)C4ON3C(C(N)=O)c3ccccc3)cc21 (stereo unspecified) | – | 9.12 µM (inactive) | 4.66 µM (inactive) | 17.7 µM (inactive) | 16.7 µM (inactive) | 21.2 µM (inactive) | 15.1 µM (inactive) | 9.95 µM (inactive) | 7.73 µM (inactive) | > 25 µM (inactive) | 2.63 µM (inactive) | 7.53 µM (inactive) | > 25 µM (inactive) | > 25 µM (inactive) | 7.16 µM (inactive) | 2.76 µM (inactive) | > 25 µM (inactive) | > 25 µM (inactive) | > 25 µM (inactive)
3 | O=C(c1cc(Cl)cc(Cl)c1)N(C(=S)OC12CC3CC(CC(C3)C1)C2)c1ccccc1 | 5.24 µM (inactive) | 43.1 µM (inactive) | 42.1 µM (inactive) | 24.4 µM (inactive) | 36.5 µM (inactive) | 32.8 µM (inactive) | 46.3 µM (inactive) | 40.3 µM (inactive) | 43.3 µM (inactive) | 32.5 µM (inactive) | 34.9 µM (inactive) | – | 59.4 µM (inactive) | 25.1 µM (inactive) | 53.3 µM (inactive) | 35.5 µM (inactive) | 29 µM (inactive) | 37.3 µM (inactive) | 52.8 µM (inactive)
4 | O=C(Nc1cccc(-c2cn3ccccc3n2)c1)c1ccncc1 | 27.3 µM (inactive) | 24 µM (inactive) | 31.3 µM (inactive) | 20.1 µM (inactive) | 32.7 µM (inactive) | 64.4 µM (inactive) | > 100 µM (inactive) | 32.6 µM (inactive) | 29.9 µM (inactive) | 70.8 µM (inactive) | 76 µM (inactive) | 21.7 µM (inactive) | 48.5 µM (inactive) | 43.1 µM (inactive) | 56.9 µM (inactive) | 56.5 µM (inactive) | 98.2 µM (inactive) | 21.7 µM (inactive) | 41.4 µM (inactive)
5 | CCCCCCc1cc2cc(C(=O)Nc3cccc(C(F)(F)F)c3)c(=N)oc2cc1O | 0.933 µM (active) | 0.361 µM (active) | 2.32 µM (inactive) | 1.44 µM (inactive) | 1.33 µM (inactive) | 1.37 µM (inactive) | 4.27 µM (inactive) | 2.84 µM (inactive) | 2.44 µM (inactive) | 2.16 µM (inactive) | 2.92 µM (inactive) | 0.586 µM (active) | 2.57 µM (inactive) | 3.14 µM (inactive) | 4.01 µM (inactive) | 1.06 µM (active) | 0.348 µM (active) | 2.06 µM (inactive) | 0.944 µM (active)
6 | Cc1ccccc1OC(C)C(=O)NN1C(=O)CC(=O)NC1=S (stereo unspecified) | – | 49.1 µM (inactive) | > 100 µM (inactive) | > 100 µM (inactive) | > 100 µM (inactive) | > 100 µM (inactive) | > 100 µM (inactive) | 92 µM (inactive) | > 100 µM (inactive) | > 100 µM (inactive) | > 100 µM (inactive) | 94.8 µM (inactive) | > 100 µM (inactive) | > 100 µM (inactive) | > 100 µM (inactive) | 70.5 µM (inactive) | > 100 µM (inactive) | > 100 µM (inactive) | > 100 µM (inactive)
7 | COc1cc(-c2ccccc2N)c2cccnc2c1OC | 3.56 µM (inactive) | 1.67 µM (inactive) | 2.63 µM (inactive) | 3.98 µM (inactive) | 3.93 µM (inactive) | 2.83 µM (inactive) | – | 6.07 µM (inactive) | 10.1 µM (inactive) | 9.57 µM (inactive) | 14.1 µM (inactive) | 1.44 µM (inactive) | 17.9 µM (inactive) | 3.8 µM (inactive) | 10.1 µM (inactive) | 11.6 µM (inactive) | 9.53 µM (inactive) | 10.4 µM (inactive) | 3.1 µM (inactive)
8 | CC1(C)CC(=O)C2=C(C1)OC1(CC2c2ccc(Cl)cc2)CC(c2ccc(Cl)cc2)C2=C(CC(C)(C)CC2=O)O1 (stereo unspecified) | 15.5 µM (inactive) | 4.83 µM (inactive) | 26.9 µM (inactive) | 3.58 µM (inactive) | 36.7 µM (inactive) | 15.7 µM (inactive) | 26.9 µM (inactive) | 16.7 µM (inactive) | 17 µM (inactive) | 12.1 µM (inactive) | 16 µM (inactive) | 3.13 µM (inactive) | 15.2 µM (inactive) | 13.6 µM (inactive) | 32.4 µM (inactive) | 22.4 µM (inactive) | 3.52 µM (inactive) | > 38.5 µM (inactive) | 17.9 µM (inactive)
9 | CCOP(=O)(OCC)C(Nc1ccc(F)cc1)c1cccc([N+](=O)[O-])c1 (stereo unspecified) | 62.4 µM (inactive) | 93.5 µM (inactive) | > 100 µM (inactive) | 41.3 µM (inactive) | > 100 µM (inactive) | > 10 µM (inactive) | > 100 µM (inactive) | 94 µM (inactive) | > 100 µM (inactive) | > 100 µM (inactive) | > 100 µM (inactive) | 37.2 µM (inactive) | > 100 µM (inactive) | 40.6 µM (inactive) | > 100 µM (inactive) | > 100 µM (inactive) | 37.9 µM (inactive) | 47.1 µM (inactive) | > 100 µM (inactive)
10 | COC(=O)C(CCSc1ccccc1)C(=O)OC | > 100 µM (inactive) | > 100 µM (inactive) | > 100 µM (inactive) | 79.3 µM (inactive) | > 100 µM (inactive) | > 100 µM (inactive) | > 100 µM (inactive) | > 100 µM (inactive) | > 100 µM (inactive) | > 100 µM (inactive) | > 100 µM (inactive) | > 100 µM (inactive) | > 100 µM (inactive) | > 100 µM (inactive) | – | > 100 µM (inactive) | > 100 µM (inactive) | > 100 µM (inactive) | –
11 | Cc1cc(C)c(C[C@H]2COC(=O)[C@]2(O)Cc2c(C)cc(C)cc2C)c(C)c1 | 31.7 µM (inactive) | 41.5 µM (inactive) | 18.6 µM (inactive) | 14.7 µM (inactive) | 19.4 µM (inactive) | 20.8 µM (inactive) | 17.1 µM (inactive) | 18.3 µM (inactive) | 17.7 µM (inactive) | 17.9 µM (inactive) | 14.6 µM (inactive) | 26.7 µM (inactive) | 24.7 µM (inactive) | 19.6 µM (inactive) | 21.6 µM (inactive) | 17 µM (inactive) | 14.2 µM (inactive) | 15.6 µM (inactive) | 14.9 µM (inactive)
12 | O=C(CSc1nc2ccc(I)cc2c(=O)n1Cc1ccccc1)Nc1ccccc1 | > 100 µM (inactive) | 11.2 µM (inactive) | 12.9 µM (inactive) | > 100 µM (inactive) | 19.6 µM (inactive) | 8.57 µM (inactive) | 30.6 µM (inactive) | 94.4 µM (inactive) | – | 12.1 µM (inactive) | 15.6 µM (inactive) | > 100 µM (inactive) | 35.6 µM (inactive) | 0.331 µM (active) | – | 11.9 µM (inactive) | 19.3 µM (inactive) | 13.8 µM (inactive) | 8.77 µM (inactive)
13 | O=C(c1ccccc1)N1CCN(C(=S)NC2CCCCC2)C1=S | 12.2 µM (inactive) | 28.5 µM (inactive) | 24 µM (inactive) | 21.9 µM (inactive) | 17.8 µM (inactive) | 21.8 µM (inactive) | 21.7 µM (inactive) | 16 µM (inactive) | 18.7 µM (inactive) | 25.7 µM (inactive) | 19 µM (inactive) | 17.5 µM (inactive) | 14.9 µM (inactive) | 16.1 µM (inactive) | 25.8 µM (inactive) | 14.7 µM (inactive) | 15.5 µM (inactive) | 17.7 µM (inactive) | 16.8 µM (inactive)
14 | Brc1ccc2c(-c3csc(-c4c[nH]c5ccc(Br)cc45)n3)c[nH]c2c1 | 3.79 µM (inactive) | 3.89 µM (inactive) | 3.01 µM (inactive) | 5.22 µM (inactive) | 5.92 µM (inactive) | 2.31 µM (inactive) | 2.44 µM (inactive) | 2.42 µM (inactive) | 7.94 µM (inactive) | 11.2 µM (inactive) | 3.01 µM (inactive) | 2.84 µM (inactive) | 7.59 µM (inactive) | 3.82 µM (inactive) | 3.94 µM (inactive) | 3.42 µM (inactive) | 3.2 µM (inactive) | 4.83 µM (inactive) | 3.6 µM (inactive)
15 | C/C(=C(/C)c1ccc(O)cc1)c1ccc(O)cc1 [DIMETHYLSTILBESTROL] | 42.3 µM (inactive) | 40.1 µM (inactive) | 37 µM (inactive) | 41.4 µM (inactive) | 58.6 µM (inactive) | 61.9 µM (inactive) | > 100 µM (inactive) | 62.7 µM (inactive) | 43.4 µM (inactive) | > 100 µM (inactive) | 54.6 µM (inactive) | 45.5 µM (inactive) | – | 70.8 µM (inactive) | 89.5 µM (inactive) | 36.7 µM (inactive) | 27.4 µM (inactive) | 45.5 µM (inactive) | > 100 µM (inactive)
